Source: patent publication US12371428B2 (Exelixis, Inc., priority 2019, dated 2025)
Like-named read-outs stand apart in the source and are kept apart here.

Columns and labels:
[1] = molecular target: Human MET (residues 956-1390) (Homo sapiens (Human), UniProt P08581); experiment: Human Met kinase assay, HTRF KinEase (Example D-2); assay type: biochemical; conditions: read-out: c-Met IC50
Procedure, shortened: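 MET kinase domain (956-1390), 0.1 ng/well, in buffer with 5 mM MgCl2, 1 mM DTT and 1 mM MnCl2, phosphorylated a biotinylated peptide at ATP Km for 40 min at RT; 10 concentrations, 3% DMSO final. EDTA-stopped HTRF read after 60 min; IC50 from a 4-parameter logistic fit.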

[2] = molecular target: AXL (phospho-AXL, Gas6-stimulated A-172 glioblastoma cells) (Homo sapiens (Human), UniProt P30530); experiment: AXL autophosphorylation ELISA in A-172 cells (Example E); assay type: cell-based; conditions: cellular activity, read-out: Axl IC50
Procedure, shortened: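 Phospho-AXL in lysates was quantified by ELISA, normalised to DMSO (100%) and reference inhibitor (0%) controls. IC50 by 4-parameter logistic fit.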

[3] = molecular target: Met (phospho-Met, HGF-stimulated PC-3 prostate cancer cells) (Homo sapiens (Human), UniProt P08581); experiment: Met autophosphorylation ELISA in PC-3 cells (Example F); assay type: cell-based; conditions: cellular activity, read-out: c-Met IC50
Procedure, shortened: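 PC-3 cells, serum-starved 3 h, were treated with compounds (8-point dose curve, 0.3% DMSO final) for 1 h, then stimulated with 100 ng/mL recombinant human HGF for 10 min. Lysate phospho-Met (panTyr) was quantified by sandwich ELISA; IC50 from 4-parameter logistic fit.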

[4] = molecular target: KDR (phospho-KDR, VEGF165-stimulated HUVEC cells) (Homo sapiens (Human), UniProt P35968); experiment: KDR autophosphorylation ELISA in HUVEC cells (Example G); assay type: cell-based; conditions: cellular activity
Procedure, shortened: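 HUVEC cells, serum-starved 24 h, were treated 1 h with an 8-point compound dilution (0.3% DMSO) and then stimulated with 100 ng/mL VEGF165 for 5 min. Phospho-KDR in lysates was quantified by sandwich ELISA against a phospho-KDR standard. IC50 from a 4-parameter logistic fit, normalised between stimulated DMSO and unstimulated controls.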

[5] = molecular target: Mer (phospho-Mer, MERTK-transfected 293A cells) (Homo sapiens (Human), UniProt Q12866); experiment: Mer autophosphorylation ELISA in transient transfected 293A cells (Example H); assay type: cell-based; conditions: cellular activity
Procedure, shortened: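 293A cells transiently transfected with human MERTK were treated 1 h in serum-free medium with an 8-point compound dilution (0.3% DMSO final). Lysates were assayed by phospho-Mer sandwich ELISA against a phospho-Mer standard; IC50 came from a 4-parameter logistic fit, normalised to DMSO (100%) and reference-inhibitor (0%) controls.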

[6] = AXL autophosphorylation ELISA in A-172 cells
[7] = Met autophosphorylation ELISA in PC-3 cells
[8] = KDR autophosphorylation ELISA in HUVEC cells
[9] = Mer autophosphorylation ELISA in transient transfected 293A cells

Sequence of AXL (phospho-AXL, Gas6-stimulated A-172 glioblastoma cells) (P30530 26-894): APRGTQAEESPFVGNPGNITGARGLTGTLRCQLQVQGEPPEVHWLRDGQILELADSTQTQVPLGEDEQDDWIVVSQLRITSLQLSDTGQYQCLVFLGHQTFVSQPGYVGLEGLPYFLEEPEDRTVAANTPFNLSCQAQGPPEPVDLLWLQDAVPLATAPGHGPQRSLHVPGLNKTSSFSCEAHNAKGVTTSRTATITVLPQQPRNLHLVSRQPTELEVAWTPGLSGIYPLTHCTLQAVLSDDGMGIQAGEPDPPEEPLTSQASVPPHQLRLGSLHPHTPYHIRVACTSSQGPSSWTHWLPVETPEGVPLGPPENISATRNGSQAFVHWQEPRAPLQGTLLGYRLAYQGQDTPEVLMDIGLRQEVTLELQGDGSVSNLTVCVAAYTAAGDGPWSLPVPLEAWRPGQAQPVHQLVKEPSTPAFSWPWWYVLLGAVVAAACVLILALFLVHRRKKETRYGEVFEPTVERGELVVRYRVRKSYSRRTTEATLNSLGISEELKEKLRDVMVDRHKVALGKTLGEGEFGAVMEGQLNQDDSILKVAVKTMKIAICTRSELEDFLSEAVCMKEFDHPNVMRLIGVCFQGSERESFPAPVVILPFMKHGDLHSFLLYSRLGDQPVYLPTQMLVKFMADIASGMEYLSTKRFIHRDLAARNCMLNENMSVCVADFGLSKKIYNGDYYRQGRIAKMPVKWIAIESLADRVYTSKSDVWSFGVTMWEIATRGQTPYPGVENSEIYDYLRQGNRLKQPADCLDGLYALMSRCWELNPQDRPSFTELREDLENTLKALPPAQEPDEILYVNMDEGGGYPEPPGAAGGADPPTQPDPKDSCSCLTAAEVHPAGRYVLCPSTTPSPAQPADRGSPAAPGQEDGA
Sequence of KDR (phospho-KDR, VEGF165-stimulated HUVEC cells) (P35968 20-1356): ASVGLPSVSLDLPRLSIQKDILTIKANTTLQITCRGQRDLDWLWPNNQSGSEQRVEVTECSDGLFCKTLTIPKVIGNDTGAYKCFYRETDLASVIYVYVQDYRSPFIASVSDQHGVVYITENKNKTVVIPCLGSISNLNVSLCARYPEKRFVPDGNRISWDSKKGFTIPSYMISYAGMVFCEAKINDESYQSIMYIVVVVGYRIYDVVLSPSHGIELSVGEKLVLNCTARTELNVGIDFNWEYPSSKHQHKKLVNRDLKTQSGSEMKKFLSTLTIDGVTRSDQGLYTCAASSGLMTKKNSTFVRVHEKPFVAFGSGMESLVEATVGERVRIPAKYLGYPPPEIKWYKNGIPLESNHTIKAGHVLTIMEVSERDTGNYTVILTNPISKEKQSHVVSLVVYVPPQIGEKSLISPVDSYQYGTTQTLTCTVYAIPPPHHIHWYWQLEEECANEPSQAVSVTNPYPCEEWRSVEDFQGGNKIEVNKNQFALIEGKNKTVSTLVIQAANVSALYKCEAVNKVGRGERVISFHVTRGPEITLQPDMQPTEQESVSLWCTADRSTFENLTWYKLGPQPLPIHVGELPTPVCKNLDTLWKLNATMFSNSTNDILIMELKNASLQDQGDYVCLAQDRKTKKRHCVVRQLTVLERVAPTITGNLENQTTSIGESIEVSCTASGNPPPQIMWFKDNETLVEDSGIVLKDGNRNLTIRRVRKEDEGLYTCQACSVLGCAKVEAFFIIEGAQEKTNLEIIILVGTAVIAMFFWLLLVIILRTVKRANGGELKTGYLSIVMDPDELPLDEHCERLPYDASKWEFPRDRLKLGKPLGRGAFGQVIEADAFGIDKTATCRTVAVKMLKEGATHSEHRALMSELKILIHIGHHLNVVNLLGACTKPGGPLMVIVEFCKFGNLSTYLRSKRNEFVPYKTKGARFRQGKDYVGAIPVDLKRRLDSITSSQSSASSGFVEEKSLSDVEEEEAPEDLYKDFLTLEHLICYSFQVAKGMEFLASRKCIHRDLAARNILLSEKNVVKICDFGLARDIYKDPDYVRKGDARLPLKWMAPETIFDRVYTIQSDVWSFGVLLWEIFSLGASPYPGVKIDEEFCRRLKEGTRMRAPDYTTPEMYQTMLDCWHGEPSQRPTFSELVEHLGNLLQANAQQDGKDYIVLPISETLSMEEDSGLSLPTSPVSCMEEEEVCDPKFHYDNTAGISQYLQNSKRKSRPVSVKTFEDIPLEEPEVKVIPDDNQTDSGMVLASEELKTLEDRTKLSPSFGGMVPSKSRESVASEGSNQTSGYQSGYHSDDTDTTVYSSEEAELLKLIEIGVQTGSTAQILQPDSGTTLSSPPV
Sequence of Met (phospho-Met, HGF-stimulated PC-3 prostate cancer cells) (P08581 25-1390): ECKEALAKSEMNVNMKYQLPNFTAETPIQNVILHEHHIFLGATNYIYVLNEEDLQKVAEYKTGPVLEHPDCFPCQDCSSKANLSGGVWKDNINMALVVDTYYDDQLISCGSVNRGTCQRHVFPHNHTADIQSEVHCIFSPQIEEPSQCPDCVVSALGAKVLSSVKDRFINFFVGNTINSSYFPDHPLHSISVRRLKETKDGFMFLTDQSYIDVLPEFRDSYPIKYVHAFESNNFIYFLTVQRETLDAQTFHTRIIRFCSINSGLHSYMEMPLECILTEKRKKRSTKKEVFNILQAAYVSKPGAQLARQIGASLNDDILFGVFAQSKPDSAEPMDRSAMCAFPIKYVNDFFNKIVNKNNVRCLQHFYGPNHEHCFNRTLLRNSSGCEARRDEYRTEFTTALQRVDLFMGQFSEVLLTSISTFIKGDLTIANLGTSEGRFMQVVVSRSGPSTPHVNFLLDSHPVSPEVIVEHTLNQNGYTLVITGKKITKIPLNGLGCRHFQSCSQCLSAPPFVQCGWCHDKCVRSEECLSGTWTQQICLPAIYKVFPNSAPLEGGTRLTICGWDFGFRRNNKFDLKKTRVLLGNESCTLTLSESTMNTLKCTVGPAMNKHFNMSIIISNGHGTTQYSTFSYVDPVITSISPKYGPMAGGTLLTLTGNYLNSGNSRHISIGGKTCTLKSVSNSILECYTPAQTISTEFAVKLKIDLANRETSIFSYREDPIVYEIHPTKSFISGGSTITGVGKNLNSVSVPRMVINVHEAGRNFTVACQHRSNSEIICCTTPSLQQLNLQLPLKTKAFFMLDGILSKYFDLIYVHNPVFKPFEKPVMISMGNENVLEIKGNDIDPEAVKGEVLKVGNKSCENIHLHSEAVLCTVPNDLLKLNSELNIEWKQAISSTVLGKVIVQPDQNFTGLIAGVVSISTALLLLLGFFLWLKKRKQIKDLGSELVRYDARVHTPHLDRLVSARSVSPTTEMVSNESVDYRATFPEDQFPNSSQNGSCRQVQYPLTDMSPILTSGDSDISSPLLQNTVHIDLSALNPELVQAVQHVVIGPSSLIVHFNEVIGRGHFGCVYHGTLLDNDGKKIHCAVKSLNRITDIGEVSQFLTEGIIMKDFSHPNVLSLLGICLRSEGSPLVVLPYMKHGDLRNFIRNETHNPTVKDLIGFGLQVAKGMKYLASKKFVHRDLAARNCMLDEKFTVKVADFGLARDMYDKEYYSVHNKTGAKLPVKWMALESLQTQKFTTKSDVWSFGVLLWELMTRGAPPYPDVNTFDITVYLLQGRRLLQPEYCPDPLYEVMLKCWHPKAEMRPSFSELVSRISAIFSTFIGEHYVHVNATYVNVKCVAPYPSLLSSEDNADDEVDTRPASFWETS
Sequence of Mer (phospho-Mer, MERTK-transfected 293A cells) (Q12866 21-999): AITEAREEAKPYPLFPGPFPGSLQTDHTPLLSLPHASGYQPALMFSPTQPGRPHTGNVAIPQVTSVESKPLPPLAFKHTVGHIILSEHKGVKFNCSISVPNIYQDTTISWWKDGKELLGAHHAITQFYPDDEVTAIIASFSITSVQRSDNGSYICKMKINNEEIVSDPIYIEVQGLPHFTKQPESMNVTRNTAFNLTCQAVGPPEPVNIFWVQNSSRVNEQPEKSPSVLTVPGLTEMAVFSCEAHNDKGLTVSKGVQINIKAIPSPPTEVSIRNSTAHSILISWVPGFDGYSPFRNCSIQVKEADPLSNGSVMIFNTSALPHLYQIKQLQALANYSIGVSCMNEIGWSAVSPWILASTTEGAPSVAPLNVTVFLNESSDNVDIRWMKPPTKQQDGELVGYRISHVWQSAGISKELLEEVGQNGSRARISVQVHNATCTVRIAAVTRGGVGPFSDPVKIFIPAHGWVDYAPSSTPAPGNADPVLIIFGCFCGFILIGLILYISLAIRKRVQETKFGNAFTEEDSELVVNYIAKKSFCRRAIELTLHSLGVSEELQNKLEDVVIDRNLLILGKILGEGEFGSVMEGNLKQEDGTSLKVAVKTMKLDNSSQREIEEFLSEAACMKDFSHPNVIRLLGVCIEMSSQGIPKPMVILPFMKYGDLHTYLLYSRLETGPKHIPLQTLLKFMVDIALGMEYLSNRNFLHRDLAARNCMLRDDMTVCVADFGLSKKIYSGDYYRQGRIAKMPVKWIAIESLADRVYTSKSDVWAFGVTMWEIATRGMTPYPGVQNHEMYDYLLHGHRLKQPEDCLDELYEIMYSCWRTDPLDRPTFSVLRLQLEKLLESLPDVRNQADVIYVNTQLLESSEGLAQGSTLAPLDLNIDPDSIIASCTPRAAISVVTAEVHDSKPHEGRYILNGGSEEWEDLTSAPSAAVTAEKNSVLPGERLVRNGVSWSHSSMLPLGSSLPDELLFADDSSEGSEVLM
Sequence of Human MET (residues 956-1390) (P08581 956-1390): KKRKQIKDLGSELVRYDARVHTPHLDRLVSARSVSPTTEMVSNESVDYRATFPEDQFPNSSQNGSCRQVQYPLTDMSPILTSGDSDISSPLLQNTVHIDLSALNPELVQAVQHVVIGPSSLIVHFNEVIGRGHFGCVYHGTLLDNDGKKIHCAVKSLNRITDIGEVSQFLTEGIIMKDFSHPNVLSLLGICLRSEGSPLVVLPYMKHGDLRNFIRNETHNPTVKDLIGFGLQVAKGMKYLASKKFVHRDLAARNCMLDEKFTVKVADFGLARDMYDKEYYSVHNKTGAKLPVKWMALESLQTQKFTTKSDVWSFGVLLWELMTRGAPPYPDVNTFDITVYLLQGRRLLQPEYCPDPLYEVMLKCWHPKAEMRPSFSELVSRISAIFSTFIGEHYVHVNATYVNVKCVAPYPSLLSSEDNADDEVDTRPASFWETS

| SMILES | IC50 ([1]; protocol of Example D-2 (other compounds)) | IC50 [2, 6] | IC50 [3, 7] | IC50 [4, 8] | IC50 [5, 9] | IC50 ([1]; protocol of Example D-2) | IC50 ([2]; A-172 cells) | IC50 ([3]; PC-3 cells) | IC50 ([4]; HUVEC cells) | IC50 ([5]; transfected 293A cells) |
| --- | --- | --- | --- | --- | --- | --- | --- | --- | --- | --- |
| COc1cc2nccc(Oc3ccc(NC(=O)c4cn(C5CNC5)cc(-c5ccc(F)cc5)c4=O)cc3F)c2nc1OC [Compound 576, 1-(Azetidin-3-yl)-N-[4-[(6,7-dimethoxy-1,5-naphthyridin-4-yl)oxy]-3-fluorophenyl]-5-(4-fluorophenyl)-4-oxopyridine-3-carboxamide] | – | < 100 nM | < 100 nM | > 300 nM | < 100 nM | < 100 nM | – | – | – | – |
| COc1cc2nccc(Oc3ccc(NC(=O)c4c5n(cc(-c6ccc(F)cc6)c4=O)CCOC5)cc3F)c2nc1OC [Compound 808, N-[4-[(6,7-dimethoxy-1,5-naphthyridin-4-yl)oxy]-3-fluorophenyl]-7-(4-fluorophenyl)-8-oxo-3,4-dihydro-1H-pyrido[2,1-c][1,4]oxazine-9-carboxamide] | – | – | – | – | – | – | < 100 nM | < 100 nM | > 300 nM | < 100 nM |
| COc1cc(F)ccc1-c1cn(CC(F)F)c(C)c(C(=O)Nc2ccc(Oc3ccnc4cc(OC)c(OC)nc34)c(F)c2)c1=O [Compound 810, 1-(2,2-difluoroethyl)-N-[4-[(6,7-dimethoxy-1,5-naphthyridin-4-yl)oxy]-3-fluorophenyl]-5-(4-fluoro-2-methoxyphenyl)-2-methyl-4-oxopyridine-3-carboxamide] | – | – | – | – | – | – | < 100 nM | < 100 nM | < 100 nM | < 100 nM |
| COc1cnc2c(Oc3ccc(NC(=O)c4c(C)n(CC(F)F)cc(-c5ccc(F)cc5OC)c4=O)cc3F)ccnc2c1 [Compound 811, 1-(2,2-difluoroethyl)-N-[3-fluoro-4-[(7-methoxy-1,5-naphthyridin-4-yl)oxy]phenyl]-5-(4-fluoro-2-methoxyphenyl)-2-methyl-4-oxopyridine-3-carboxamide] | – | – | – | – | – | – | < 100 nM | < 100 nM | < 100 nM | < 100 nM |
| COc1cc2nccc(Oc3ccc(NC(=O)c4c(C)n(CC(F)F)cc(-c5ccc(F)c(C)c5)c4=O)cc3F)c2nc1OC [Compound 812, 1-(2,2-difluoroethyl)-N-[4-[(6,7-dimethoxy-1,5-naphthyridin-4-yl)oxy]-3-fluorophenyl]-5-(4-fluoro-3-methylphenyl)-2-methyl-4-oxopyridine-3-carboxamide] | – | – | – | – | – | – | < 100 nM | < 100 nM | > 300 nM | < 100 nM |
| COc1cnc2c(Oc3ccc(NC(=O)c4c(C)n(CCF)cc(-c5ccc(F)c(C)c5)c4=O)cc3F)ccnc2c1 [Compound 813, 1-(2-fluoroethyl)-N-[3-fluoro-4-[(7-methoxy-1,5-naphthyridin-4-yl)oxy]phenyl]-5-(4-fluoro-3-methylphenyl)-2-methyl-4-oxopyridine-3-carboxamide] | – | – | – | – | – | – | < 100 nM | < 100 nM | 100 to 300 nM | < 100 nM |
| COc1cnc2c(Oc3ccc(NC(=O)c4c(C)n(CC(F)F)cc(-c5ccc(F)c(C)c5)c4=O)cc3F)ccnc2c1 [Compound 814, 1-(2,2-difluoroethyl)-N-[3-fluoro-4-[(7-methoxy-1,5-naphthyridin-4-yl)oxy]phenyl]-5-(4-fluoro-3-methylphenyl)-2-methyl-4-oxopyridine-3-carboxamide] | – | – | – | – | – | – | < 100 nM | < 100 nM | > 300 nM | < 100 nM |
| COc1cc2nccc(Oc3ccc(NC(=O)c4c(C)n(C)c(C)c(-c5ccc(F)c(C)c5)c4=O)cc3F)c2nc1OC [Compound 821, N-[4-[(6,7-dimethoxy-1,5-naphthyridin-4-yl)oxy]-3-fluorophenyl]-5-(4-fluoro-3-methylphenyl)-1,2,6-trimethyl-4-oxopyridine-3-carboxamide] | – | – | – | – | – | – | < 100 nM | < 100 nM | 100 to 300 nM | < 100 nM |

More lines, now with the values ahead:

| IC50 ([1]; protocol of Example D-2 (other compounds)) | IC50 [2, 6] | IC50 [3, 7] | IC50 [4, 8] | IC50 [5, 9] | IC50 ([1]; protocol of Example D-2) | IC50 ([2]; A-172 cells) | IC50 ([3]; PC-3 cells) | IC50 ([4]; HUVEC cells) | IC50 ([5]; transfected 293A cells) | SMILES |
| --- | --- | --- | --- | --- | --- | --- | --- | --- | --- | --- |
| < 100 nM | < 100 nM | < 100 nM | > 300 nM | < 100 nM | – | – | – | – | – | COc1cc2nccc(Oc3ccc(NC(=O)c4cn(C5CN(C)C5)cc(-c5ccc(F)cc5)c4=O)cc3F)c2nc1OC [Compound 52, N-[4-[(6,7-Dmethoxy-1,5-naphthyridin-4-yl)oxy]-3-fluorophenyl]-5-(4-fluorophenyl)-1-(1-methylazetidin-3-yl)-4-oxopyridine-3-carboxamide] |
| – | – | – | – | – | – | < 100 nM | < 100 nM | > 300 nM | < 100 nM | COc1cnc2c(Oc3ccc(NC(=O)c4c5n(cc(-c6ccc(F)cc6)c4=O)CCOC5)cc3F)ccnc2c1 [Compound 809, N-[3-fluoro-4-[(7-methoxy-1,5-naphthyridin-4-yl)oxy]phenyl]-7-(4-fluorophenyl)-8-oxo-3,4-dihydro-1H-pyrido[2,1-c][1,4]oxazine-9-carboxamide] |
| – | – | – | – | – | – | < 100 nM | < 100 nM | 100 to 300 nM | < 100 nM | COc1cc2nccc(Oc3ccc(NC(=O)c4c(C)n(CCF)cc(-c5ccc(F)c(F)c5)c4=O)cc3F)c2nc1OC [Compound 815, 5-(3,4-difluorophenyl)-N-[4-[(6,7-dimethoxy-1,5-naphthyridin-4-yl)oxy]-3-fluorophenyl]-1-(2-fluoroethyl)-2-methyl-4-oxopyridine-3-carboxamide] |
| – | – | – | – | – | – | < 100 nM | < 100 nM | > 300 nM | < 100 nM | COc1cc2nccc(Oc3ccc(NC(=O)c4c(C)n(CC(F)F)cc(-c5ccc(F)c(F)c5)c4=O)cc3F)c2nc1OC [Compound 816, 1-(2,2-difluoroethyl)-5-(3,4-difluorophenyl)-N-[4-[(6,7-dimethoxy-1,5-naphthyridin-4-yl)oxy]-3-fluorophenyl]-2-methyl-4-oxopyridine-3-carboxamide] |
